Test results: ChEMBL document CHEMBL1153258, “Synthesis and antiviral activity of 3-substituted imidazo[1,2-a]pyridines” (Bioorg Med Chem Lett, 1994)
Values after ≈ are worked out from the molar mass of the structure shown.

What was measured:
E6SM [1] = test: Cytotoxicity (to alter cell morphology) against E6SM cell cultures; assay type: functional; settings: Homo sapiens
E6SM [2] = test: Antiviral activity (to reduce virus-induced cytopathogenicity) against Herpes simplex virus-1 TK-B2006 in E6SM cell cultures; assay type: functional; settings: Homo sapiens
E6SM [3] = test: Antiviral activity (to reduce virus-induced cytopathogenicity) against Herpes simplex virus-1 TK-VMW1837 in E6SM cell cultures; assay type: functional; settings: Homo sapiens
E6SM [4] = test: Antiviral activity (to reduce virus-induced cytopathogenicity) against Herpes simplex virus-1(KOS) in E6SM cell cultures; assay type: functional; settings: Homo sapiens
E6SM [5] = test: Antiviral activity (to reduce virus-induced cytopathogenicity) against Herpes simplex virus-2 (G) in E6SM cell cultures; assay type: functional; settings: Homo sapiens
E6SM [6] = test: Antiviral activity (to reduce virus-induced cytopathogenicity) against Vaccinia virus in E6SM cell cultures; assay type: functional; settings: Homo sapiens
E6SM [7] = test: Antiviral activity (to reduce virus-induced cytopathogenicity) against Vesicular stomatitis virus in E6SM cell cultures; assay type: functional; settings: Homo sapiens
HeLa [8] = test: Antiviral activity (to reduce virus-induced cytopathogenicity) against Coxsackie virus B4 in HeLa cells; assay type: functional; settings: Homo sapiens
HeLa [9] = test: Antiviral activity (to reduce virus-induced cytopathogenicity) against Polio virus-I in HeLa cells; assay type: functional; settings: Homo sapiens
HeLa [10] = test: Antiviral activity (to reduce virus-induced cytopathogenicity) against Vesicular stomatitis virus in HeLa cells; assay type: functional; settings: Homo sapiens
HeLa [11] = test: Cytotoxicity (to alter cell morphology) against HeLa cells; assay type: functional; settings: Homo sapiens
Vero [12] = test: Minimum cytotoxic concentration (to alter cell morphology) against vero cells; assay type: functional; settings: Chlorocebus sabaeus
Vero [13] = test: Antiviral activity (to reduce virus-induced cytopathogenicity) against Parainfluenza-3 virus in vero cells; assay type: functional; settings: Chlorocebus sabaeus
Vero [14] = test: Antiviral activity (to reduce virus-induced cytopathogenicity) against Reovirus-1 in vero cells; assay type: functional; settings: Chlorocebus sabaeus
Vero [15] = test: Antiviral activity (to reduce virus-induced cytopathogenicity) against forest virus in vero cells; assay type: functional; settings: Chlorocebus sabaeus
Vero [16] = test: Antiviral activity (to reduce virus-induced cytopathogenicity) against Sindbis virus in vero cells; assay type: functional; settings: Chlorocebus sabaeus
Vero [17] = test: Antiviral activity (to reduce virus-induced cytopathogenicity) against Coxsackie virus in vero cells; assay type: functional; settings: Chlorocebus sabaeus
HEL [18] = test: Cytotoxicity (to alter cell morphology) against Cytomegalovirus in human embryonic lung (HEL) cells; assay type: functional
HEL [19] = test: Cytotoxicity (to alter cell morphology) against Varicella-Zoster virus in human embryonic lung (HEL) cells; assay type: functional
HEL [20] = test: Antiviral activity against Cytomegalovirus (AD-169 strain) to reduce plaque formation in human embryonic lung (HEL) cells; assay type: functional, cell-based
HEL [21] = test: Antiviral activity against Cytomegalovirus (Davis strain) to reduce plaque formation in human embryonic lung (HEL) cells; assay type: functional, cell-based
HEL [22] = test: Antiviral activity against thymidine kinase-negative (TK-) O7/1 strain of Varicella zoster virus to reduce plaque formation in human embryonic lung (HEL) cells; assay type: functional, cell-based
HEL [23] = test: Antiviral activity against thymidine kinase-negative (TK-) YS/R strain of Varicella zoster virus to reduce plaque formation in human embryonic lung (HEL) cells; assay type: functional, cell-based
HEL [24] = test: Antiviral activity against thymidine kinase-positive (TK+) OKA strain of Varicella zoster virus to reduce plaque formation in human embryonic lung (HEL) cells; assay type: functional, cell-based
HEL [25] = test: Antiviral activity against thymidine kinase-positive (TK+) YS strain of Varicella zoster virus to reduce plaque formation in human embryonic lung (HEL) cells; assay type: functional, cell-based
[26] = Cytotoxicity (to reduce cell growth) against Cytomegalovirus in human embryonic lung (HEL) cells; assay type: cell-based
[27] = Cytotoxicity (to reduce cell growth) against Varicella-Zoster virus in human embryonic lung (HEL) cells; assay type: cell-based

Structure (SMILES) | MCC (E6SM [1]) | MIC (E6SM [2]) | MIC (E6SM [3]) | MIC (E6SM [4]) | MIC (E6SM [5]) | MIC (E6SM [6]) | MIC (E6SM [7]) | MIC (HeLa [8]) | MIC (HeLa [9]) | MIC (HeLa [10]) | MCC (HeLa [11]) | MCC (Vero [12]) | MIC (Vero [13]) | MIC (Vero [14]) | MIC (Vero [15]) | MIC (Vero [16]) | MIC (Vero [17]) | MCC (HEL [18]) | MCC (HEL [19]) | IC50 (HEL [20]) | further results
Nc1nccc2c1ncn2[C@@H]1O[C@H](CO)[C@@H](O)[C@H]1O | > 400 µg/mL | 200 µg/mL (≈ 751 µM) | > 400 µg/mL | > 400 µg/mL | 300 µg/mL (≈ 1130 µM) | 0.7 µg/mL (≈ 2.63 µM) | 0.7 µg/mL (≈ 2.63 µM) | > 400 µg/mL | > 400 µg/mL | 2 µg/mL (≈ 7.51 µM) | > 400 µg/mL | > 400 µg/mL | 0.7 µg/mL (≈ 2.63 µM) | 2 µg/mL (≈ 7.51 µM) | > 400 µg/mL | 4 µg/mL (≈ 15 µM) | > 400 µg/mL |  |  |  | 
OCCSCc1c(-c2ccccc2)nc2ccccn12 | > 200 µg/mL | > 40 µg/mL | > 40 µg/mL | 100 µg/mL (≈ 352 µM) | 70 µg/mL (≈ 246 µM) | 70 µg/mL (≈ 246 µM) | > 40 µg/mL | > 100 µg/mL | > 100 µg/mL | > 100 µg/mL | > 100 µg/mL | 40 µg/mL | > 10 µg/mL | > 10 µg/mL | 20 µg/mL (≈ 70.3 µM) | 20 µg/mL (≈ 70.3 µM) | 70 µg/mL (≈ 246 µM) | > 40 µg/mL | > 40 µg/mL | 20 µg/mL (≈ 70.3 µM) | IC50 (HEL [21]): 25 µg/mL (≈ 87.9 µM); IC50 (HEL [22]): 26 µg/mL (≈ 91.4 µM); IC50 (HEL [23]): 10 µg/mL (≈ 35.2 µM); IC50 (HEL [24]): 28 µg/mL (≈ 98.5 µM); IC50 (HEL [25]): 35 µg/mL (≈ 123 µM); CC50 [26]: 80 µg/mL (≈ 281 µM); CC50 [27]: 80 µg/mL (≈ 281 µM)
OCCOCc1c(-c2ccccc2)nc2ccccn12 | > 200 µg/mL | > 100 µg/mL | > 100 µg/mL | > 200 µg/mL | > 200 µg/mL | > 200 µg/mL | > 100 µg/mL | > 200 µg/mL | > 200 µg/mL | > 200 µg/mL | 400 µg/mL | 400 µg/mL | 70 µg/mL (≈ 261 µM) | > 200 µg/mL | > 200 µg/mL | > 200 µg/mL | > 200 µg/mL | 100 µg/mL | > 40 µg/mL | > 40 µg/mL | IC50 (HEL [21]): > 40 µg/mL; IC50 (HEL [22]): > 40 µg/mL; IC50 (HEL [23]): > 40 µg/mL; IC50 (HEL [24]): > 40 µg/mL; IC50 (HEL [25]): > 40 µg/mL; CC50 [26]: 130 µg/mL (≈ 485 µM); CC50 [27]: 135 µg/mL (≈ 503 µM)
Cc1ccn2c(COCCO)cnc2c1 | > 400 µg/mL | > 400 µg/mL | > 400 µg/mL | > 400 µg/mL | > 400 µg/mL | > 400 µg/mL | > 400 µg/mL | > 200 µg/mL | > 200 µg/mL | > 200 µg/mL | 200 µg/mL | > 200 µg/mL | > 200 µg/mL | > 200 µg/mL | > 200 µg/mL | > 200 µg/mL | > 200 µg/mL | > 40 µg/mL | > 40 µg/mL | > 40 µg/mL | IC50 (HEL [21]): > 40 µg/mL; IC50 (HEL [22]): > 40 µg/mL; IC50 (HEL [23]): > 40 µg/mL; IC50 (HEL [24]): > 40 µg/mL; IC50 (HEL [25]): > 40 µg/mL; CC50 [26]: > 200 µg/mL; CC50 [27]: > 200 µg/mL
Cc1ccn2c(CSCCO)cnc2c1 | > 200 µg/mL | > 100 µg/mL | > 100 µg/mL | > 200 µg/mL | > 100 µg/mL | > 100 µg/mL | > 100 µg/mL | > 10 µg/mL | > 10 µg/mL | > 10 µg/mL | 10 µg/mL | 100 µg/mL | 70 µg/mL (≈ 315 µM) | > 40 µg/mL | > 100 µg/mL | 70 µg/mL (≈ 315 µM) | > 100 µg/mL | 40 µg/mL | 40 µg/mL | > 10 µg/mL | IC50 (HEL [21]): > 10 µg/mL; IC50 (HEL [22]): 4 µg/mL (≈ 18 µM); IC50 (HEL [23]): 7 µg/mL (≈ 31.5 µM); IC50 (HEL [24]): 10 µg/mL (≈ 45 µM); IC50 (HEL [25]): 6 µg/mL (≈ 27 µM); CC50 [26]: 70 µg/mL (≈ 315 µM); CC50 [27]: 70 µg/mL (≈ 315 µM)
Nc1ncnc2c1ncn2C[C@H](O)CO [(S)-DHPA] | > 400 µg/mL | 200 µg/mL (≈ 956 µM) | 100 µg/mL (≈ 478 µM) | 100 µg/mL (≈ 478 µM) | > 400 µg/mL | 40 µg/mL (≈ 191 µM) | 40 µg/mL (≈ 191 µM) | > 400 µg/mL | > 400 µg/mL | 70 µg/mL (≈ 335 µM) | > 400 µg/mL | > 400 µg/mL | 20 µg/mL (≈ 95.6 µM) | 40 µg/mL (≈ 191 µM) | > 400 µg/mL | > 400 µg/mL | > 400 µg/mL |  |  |  | 
Nc1nc2c(ncn2COCCO)c(=O)[nH]1 [ACYCLOVIR] |  |  |  |  |  |  |  |  |  |  |  |  |  |  |  |  |  |  | > 40 µg/mL |  | IC50 (HEL [23]): 9 µg/mL (≈ 40 µM); IC50 (HEL [24]): 0.23 µg/mL (≈ 1.02 µM); IC50 (HEL [25]): 0.32 µg/mL (≈ 1.42 µM); CC50 [27]: > 50 µg/mL
O=c1[nH]c(=O)n([C@H]2C[C@H](O)[C@@H](CO)O2)cc1/C=C/Br [BRIVUDINE] | > 400 µg/mL | 2 µg/mL (≈ 6 µM) | 1 µg/mL (≈ 3 µM) | 0.004 µg/mL (≈ 0.012 µM) | 20 µg/mL (≈ 60 µM) | 0.2 µg/mL (≈ 0.6 µM) | > 400 µg/mL | > 400 µg/mL | > 400 µg/mL | > 400 µg/mL | > 400 µg/mL | > 400 µg/mL | > 400 µg/mL | > 400 µg/mL | > 400 µg/mL | > 400 µg/mL | > 400 µg/mL |  |  |  | 
Nc1nc2c(ncn2COC(CO)CO)c(=O)[nH]1 [GANCICLOVIR] |  |  |  |  |  |  |  |  |  |  |  |  |  |  |  |  |  | > 100 µg/mL |  | 2 µg/mL (≈ 7.84 µM) | IC50 (HEL [21]): 1.5 µg/mL (≈ 5.88 µM); CC50 [26]: 200 µg/mL (≈ 784 µM)
NC(=O)c1ncn([C@@H]2O[C@H](CO)[C@@H](O)[C@H]2O)n1 [RIBAVIRIN] | > 400 µg/mL | 300 µg/mL (≈ 1230 µM) | 300 µg/mL (≈ 1230 µM) | > 400 µg/mL | 150 µg/mL (≈ 614 µM) | 70 µg/mL (≈ 287 µM) | 150 µg/mL (≈ 614 µM) | 70 µg/mL (≈ 287 µM) | 70 µg/mL (≈ 287 µM) | 20 µg/mL (≈ 81.9 µM) | > 400 µg/mL | > 400 µg/mL | 70 µg/mL (≈ 287 µM) | 100 µg/mL (≈ 409 µM) | 70 µg/mL (≈ 287 µM) | 70 µg/mL (≈ 287 µM) | 300 µg/mL (≈ 1230 µM) |  |  |  | 
